The subject of one data set is HBV. Briefly: anti HBV activity, HepG2.117 cell line, intracellular HBV DNA by real-time PCR. It counts as cell-based, hepatitis B virus. The conditions noted are these: for EC50: Hepatitis B virus, read-out: HBV-AVE-HepG2.117_intra_EC50. Here is the method: The anti HBV activity was measured using the HepG2.117 cell line, a stable, inducible HBV producing cell line, which replicates HBV in the absence of doxicycline (Tet-off system). The HepG2 cell line is available from ATCC® under number HB-8065. Transfection of the HepG2 cell line can be as described in Sun and Nassal 2006 Journal of Hepatology 45 (2006) 636-645 “Stable HepG2-and Huh7-based human hepatoma cell lines for efficient regulated expression of infectious hepatitis B virus”.
For the antiviral assay, HBV replication was induced, followed by a treatment with serially diluted compound in 96-well plates. After 3 days of treatment, the antiviral activity was determined by quantification of intracellular HBV DNA using real-time PCR and an HBV specific primer set and probe.
(Quantitative PCR measures a nucleic acid by following its amplification.)

The nature of a further data set: HT EQ solubility assay. The note with it: stirred 24 h, read-out: HtEq Sol. The class given is physicochemical. Here is the method: The assay was run in triplicate and was semi-automated using the Tecan Fluent for all liquid handling. 20 μL of 10 mM stock solution was dispensed in a 500 μL 96 well plate. DMSO was evaporated (Genevac). A stir bar and 400 μL of buffer/biorelevant media was added. The solution was stirred for 72 h (pH2 and pH7) or 24 h (FaSSIF and FeSSIF). The solution was filtered and the filtrate was quantified by UPLC/UV using a three-points calibration curve.

Data set [1] is described as follows: Cytotoxicity, ATPlite cell viability. It counts as cell-based. The note with it: human, mean value, HepG2 or HepG2.117 cells. Here is the method:
Cytotoxicity of the compounds was tested using HepG2 or HepG2.117 cells, incubated for 4 days in the presence of compounds. The viability of the cells was assessed using the Perkin Elmer ATPlite Luminescence Assay System.”
On the technique in general: Cellular ATP, detected with luciferase, serves as a proxy for viable cell number.

[2] abbreviates: 72 h, mean value, HepG2.117 cells, 3 days of treatment, intracellular HBV DNA.

Here are results for 33 molecules from patent publication US11096931B2, “Amide derivatives useful in the treatment of HBV infection or HBV-induced diseases” (Janssen Sciences Ireland Unlimited Company, priority 2019, dated 2021).

Where “and” joins values, the source holds several entries; their conditions need not be identical. Equal entries are not always repeated. Where two headings read alike, the source gives them in different places.

What is called CC50 is the concentration giving 50% cytotoxicity. Read a low CC50 as harm at low concentration. For `Cc1c(C(=O)C(=O)NC2(c3cn[nH]n3)CC(F)(F)C2)cn(C)c1C(=O)Nc1ccc(F)c(C#N)c1` [Compound 12], the EC50 with HBV (setting [2]) worked out at 10 nM. Moreover, the solubility thermodynamic at 24 h in the data set “HT EQ solubility assay” (Fessif) was 41.2 µM and 25.1 µM; in “HT EQ solubility assay” (fassif), 10.2 µM and 5.4 µM. Also, the half-maximal cytotoxic concentration (CC50) at 4 days in data set [1] was more than 50000 nM.

Regarding `Cn1c(C#N)c(C(=O)C(=O)NC2(c3cn[nH]n3)CC(F)(F)C2)c(F)c1C(=O)Nc1ccc(F)c(C#N)c1` [Compound 50], in the data set on HBV (setting [2]), the EC50 worked out at 1280 nM. Moreover, the CC50 at 4 days in data set [1] was more than 50000 nM.

Take `Cn1cc(C(=O)C(=O)NC(CC(F)F)c2cn[nH]n2)cc1C(=O)Nc1ccc(F)c(C#N)c1` (stereo not drawn) [Compound 24RS]: the EC50 in the data set with HBV (setting [2]) is 60 nM. This molecule yielded a CC50 at 4 days in data set [1] of 22100 nM.

Turning to `Cc1c(C(=O)C(=O)N[C@H](CC(F)(F)F)c2cn[nH]n2)cn(C)c1C(=O)Nc1ccc(F)c(Cl)c1` (single isomer, unassigned) [26*R], in the data set on HBV (setting [2]), the EC50 turned out to be 7 nM. This molecule also gave a CC50 at 4 days in data set [1] of more than 50000 nM.

Turning to `Cc1c(C(=O)C(=O)NC2(c3cn[nH]n3)CC(F)(F)C2)cc(C(=O)Nc2ccc(F)c(C#N)c2)n1C` [Compound 45], the EC50 with HBV (setting [2]) came out at 9 nM. In addition, the CC50 at 4 days in data set [1] was more than 50000 nM.

For `Cc1c(C(=O)C(=O)N[C@@H](CC(C)(F)F)c2cn[nH]n2)cn(C)c1C(=O)Nc1ccc(F)c(C#N)c1` (single isomer, unassigned) [49*S], the EC50 in the data set on HBV (setting [2]) worked out at 27 nM. The molecule further returned a CC50 at 4 days in data set [1] of more than 50000 nM.

In the case of `Cc1c(C(=O)C(=O)NC2(c3cn[nH]n3)CC(F)(F)C2)c(Br)n(C)c1C(=O)Nc1ccc(F)c(Cl)c1` [Compound 41], the EC50 in the data set on HBV (setting [2]) turned out to be 2 nM. For the same molecule, the half-maximal cytotoxic concentration (CC50) at 4 days in data set [1] is 7200 nM.

With `Cc1c(C(=O)C(=O)N[C@]2(c3cn[nH]n3)C[C@@H](O)C2)cn(C)c1C(=O)Nc1ccc(F)c(C#N)c1` [Compound 58trans], the EC50 with HBV (setting [2]) is 88 nM. The same molecule showed a CC50 at 4 days in data set [1] of more than 50000 nM.

As to `Cc1cc(NC(=O)c2cc(C(=O)C(=O)NC(C)c3cn[nH]n3)cn2C)ccc1F` (stereo not drawn) [Compound 1, N-(4-Fluoro-3-methylphenyl)-1-methyl-4-(oxo{[1-(2H-1,2,3-triazol-4-yl)ethyl]amino}acetyl)-1H-pyrrole-2-carboxamide], the EC50 in the data set with HBV (HepG2.117, 72 h) was found to be 51 nM. Also, the “improved anti-HBV activity, fold improvement over Ref. compound 59” value in the data set with HBV (from table 4 EC50 values) is listed as approximately 10 fold. In addition, the CC50 at 4 days in data set [1] was more than 50000 nM.

`Cc1c(C(=O)C(=O)N[C@@]2(c3cn[nH]n3)CCC(F)(F)C2)cn(C)c1C(=O)Nc1ccc(F)c(Cl)c1` (single isomer, unassigned) [25*S]: the EC50 in the data set on HBV (setting [2]) turned out to be 4 nM. This molecule returned a cytotoxic concentration (CC50) at 4 days in data set [1] of 24200 nM.

As to `Cn1cc(C(=O)C(=O)NC(CC(F)(F)F)c2cn[nH]n2)cc1C(=O)Nc1ccc(F)c(C#N)c1` (stereo not drawn) [Compound 20RS], the EC50 in the data set with HBV (setting [2]) stood at 61 nM. Further, in data set [1], the CC50 at 4 days was 12000 nM.

On to `Cc1c(C(=O)C(=O)N[C@]2(c3cn[nH]n3)CCC(F)(F)C2)cn(C)c1C(=O)Nc1ccc(F)c(Cl)c1` (single isomer, unassigned) [25*R], for which the EC50 in the data set on HBV (setting [2]) amounted to 3 nM. In addition, in data set [1], the CC50 at 4 days was 18600 nM.

Take `Cc1c(C(=O)C(=O)NC(CC(F)(F)F)c2cn[nH]n2)c(C)n(C)c1C(=O)Nc1ccc(F)c(C#N)c1` (stereo not drawn) [Compound 44RS]: the EC50 in the data set with HBV (setting [2]) turned out to be 4 nM. This molecule had a CC50 at 4 days in data set [1] of more than 50000 nM.

As for `Cc1c(C(=O)C(=O)NC2(c3cn[nH]n3)CC(F)(F)C2)c(Cl)c(C(=O)Nc2ccc(F)c(C#N)c2)n1C` [Compound 23], the EC50 in the data set on HBV (setting [2]) amounted to 4 nM. The molecule also had a CC50 at 4 days in data set [1] of more than 50000 nM.

Take `Cc1c(C(=O)C(=O)NC2(c3cn[nH]n3)CC(F)(F)C2)cn(C)c1C(=O)Nc1ccc(F)c(C#N)c1F` [Compound 46]: the EC50 with HBV (setting [2]) is 11 nM. In data set [1], this molecule showed a CC50 at 4 days of more than 50000 nM.

On to `Cn1cc(C(=O)C(=O)NC2(c3cn[nH]n3)COC2)cc1C(=O)Nc1ccc(F)c(C#N)c1` [Compound 17], for which the EC50 with HBV (setting [2]) was found to be 171 nM. The same molecule showed a CC50 at 4 days in data set [1] of more than 50000 nM.

With `Cn1cc(C(=O)C(=O)N[C@@]2(c3cn[nH]n3)C[C@@H]2C(F)F)cc1C(=O)Nc1ccc(F)c(C#N)c1` (single isomer, unassigned) [27*R*R], in the data set with HBV (setting [2]), the EC50 was 273 nM. Besides, the CC50 at 4 days in data set [1] came out at 24300 nM.

On to `Cc1cc(NC(=O)c2cc(C(=O)C(=O)NC(C)(C)c3cn[nH]n3)cn2C)ccc1F` [Compound 9], for which, in the data set with HBV (setting [2]), the EC50 came to 19 nM. In data set [1], this molecule displayed a CC50 at 4 days of more than 50000 nM.

On to `Cn1c(C(=O)Nc2ccc(F)c(C#N)c2)c(F)c(C(=O)C(=O)NC2(c3cn[nH]n3)CC(F)(F)C2)c1C1CC1` [Compound 52], for which the EC50 in the data set on HBV (setting [2]) was 9 nM. In data set [1], the CC50 at 4 days was more than 40600 nM.

In the case of `Cn1cc(C(=O)C(=O)NC2(c3cn[nH]n3)CC(F)(F)C2)c(Br)c1C(=O)Nc1ccc(F)c(C#N)c1` [Compound 31], the EC50 in the data set with HBV (setting [2]) is 3 nM. The molecule further returned a half-maximal cytotoxic concentration (CC50) at 4 days in data set [1] of more than 50000 nM.

For the molecule `Cc1c(C(=O)C(=O)N[C@]2(c3cn[nH]n3)C[C@H](F)C2)cn(C)c1C(=O)Nc1ccc(F)c(C#N)c1` [Compound 57cis], the EC50 in the data set with HBV (setting [2]) stood at 12 nM. In data set [1], this molecule yielded a CC50 at 4 days of more than 50000 nM.

Take `Cc1c(C(=O)C(=O)N[C@](C)(c2cn[nH]n2)C(F)F)cn(C)c1C(=O)Nc1ccc(F)c(C#N)c1` (single isomer, unassigned) [48*R]: the EC50 with HBV (setting [2]) was found to be 12 nM. Besides, in data set [1], the CC50 at 4 days was more than 50000 nM.

As to `Cn1cc(C(=O)C(=O)NC2(c3cn[nH]n3)CC(F)(F)C2)c(F)c1C(=O)Nc1ccc(F)c(C#N)c1` [Compound 5], the EC50 in the data set on HBV (setting [2]) is 10 nM. In data set [1], the CC50 at 4 days amounted to 11900 nM.

For `Cc1c(C(=O)C(=O)N[C@@](C)(c2cn[nH]n2)C(F)F)cn(C)c1C(=O)Nc1ccc(F)c(C#N)c1` (single isomer, unassigned) [48*S], the EC50 with HBV (setting [2]) was 4 nM. In data set [1], this molecule had a CC50 at 4 days of more than 50000 nM.

For `Cc1c(C(=O)C(=O)N[C@]2(c3cn[nH]n3)C[C@@H](F)C2)cn(C)c1C(=O)Nc1ccc(F)c(C#N)c1` [Compound 57trans], the EC50 with HBV (setting [2]) stood at 7 nM. The molecule also came in with a CC50 at 4 days in data set [1] of more than 50000 nM.

Regarding `Cn1cc(C(=O)C(=O)N[C@]2(c3cn[nH]n3)C[C@H]2C(F)F)cc1C(=O)Nc1ccc(F)c(C#N)c1` (single isomer, unassigned) [27*S*S], the EC50 in the data set with HBV (setting [2]) was found to be 92 nM. The same molecule showed a CC50 at 4 days in data set [1] of more than 50000 nM.

For the molecule `Cn1cc(C(=O)C(=O)NC2(c3cn[nH]n3)CC(F)(F)C2)c(C2CC2)c1C(=O)Nc1ccc(F)c(C#N)c1` [Compound 38], the EC50 in the data set on HBV (setting [2]) was 24 nM. The molecule also gave a CC50 at 4 days in data set [1] of more than 50000 nM.

As to `Cc1c(C(=O)C(=O)NC(CC(F)F)c2cn[nH]n2)c(C)n(C)c1C(=O)Nc1ccc(F)c(C#N)c1` (stereo not drawn) [Compound 29], the EC50 with HBV (setting [2]) is 9 nM. The molecule further returned a CC50 at 4 days in data set [1] of more than 50000 nM.

`Cn1cc(C(=O)C(=O)NC2(c3cn[nH]n3)CC(F)(F)C2)c(F)c1C(=O)Nc1ccc(F)c(Cl)c1` [Compound 7]: the EC50 in the data set with HBV (setting [2]) is 11 nM. Further, in data set [1], the CC50 at 4 days turned out to be 13500 nM.

`Cn1cc(C(=O)C(=O)NC2(c3cn[nH]n3)CC(F)(F)C2)c(Cl)c1C(=O)Nc1ccc(F)c(C#N)c1` [Compound 8]: the EC50 with HBV (setting [2]) turned out to be 6 nM. This molecule yielded a CC50 at 4 days in data set [1] of more than 50000 nM.

`Cc1c(C(=O)C(=O)NC2(c3cn[nH]n3)CC(F)(F)C2)c(Cl)n(C)c1C(=O)Nc1ccc(F)c(Br)c1` [Compound 40]: the EC50 in the data set with HBV (setting [2]) is 4 nM. Moreover, in data set [1], the CC50 at 4 days stood at 6600 nM.

For the molecule `Cn1cc(C(=O)C(=O)NC2(c3cnnn3C)CC(F)(F)C2)c(Cl)c1C(=O)Nc1ccc(F)c(Cl)c1` [Compound 14], the EC50 with HBV (setting [2]) is 4 nM. The CC50 at 4 days in data set [1] is more than 50000 nM.

For `Cn1cc(C(=O)C(=O)NC2(c3ncc[nH]3)CC(F)(F)C2)cc1C(=O)Nc1ccc(F)c(C#N)c1` [Compound 43], the EC50 in the data set on HBV (setting [2]) amounted to 315 nM. This molecule displayed a CC50 at 4 days in data set [1] of 6600 nM.
